Results reported in ChEMBL document CHEMBL2029300, “Discovery of a Potent Retinoid X Receptor Antagonist Structurally Closely Related to RXR Agonist NEt-3IB” (ACS Med Chem Lett, 2011).
Active and inactive are the calls of the source. The calls are words filed in the database; no cut-off is given here.

Columns and labels:
[1] = molecular target: T1, Retinoic acid receptor RXR-alpha (Homo sapiens) (UniProt P19793); assay: (§1) Antagonist activity at RXRalpha expressed in COS1 cells assessed as inhibition of NEt-TMN-induced luciferase activity after 18 hrs by reporter gene assay relative to LGD1069; format: functional, cell-based; conditions: COS-1
T1 sequence (whole entry): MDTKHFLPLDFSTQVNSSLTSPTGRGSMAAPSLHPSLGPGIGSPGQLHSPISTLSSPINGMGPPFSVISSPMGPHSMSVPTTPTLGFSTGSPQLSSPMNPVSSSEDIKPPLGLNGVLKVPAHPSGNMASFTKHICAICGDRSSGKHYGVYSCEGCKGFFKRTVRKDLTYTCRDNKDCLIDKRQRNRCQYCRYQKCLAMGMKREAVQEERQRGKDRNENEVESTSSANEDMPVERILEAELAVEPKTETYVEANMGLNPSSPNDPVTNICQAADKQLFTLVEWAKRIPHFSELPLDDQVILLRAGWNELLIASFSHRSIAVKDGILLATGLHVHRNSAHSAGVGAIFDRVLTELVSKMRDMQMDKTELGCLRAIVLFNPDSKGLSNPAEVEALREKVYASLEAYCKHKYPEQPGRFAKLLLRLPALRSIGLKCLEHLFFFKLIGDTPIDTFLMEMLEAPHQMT

[2] = molecular target: T2, Retinoic acid receptor RXR-alpha (Homo sapiens, UniProt P19793); assay: as §1; format: functional, cell-based, COS-1
T2 sequence (P19793 whole entry): T1 sequence (whole entry)

[3] = molecular target: T2, Retinoic acid receptor RXR-alpha; assay: Antagonist activity at RXRalpha expressed in COS1 cells assessed as inhibition of NEt-3IP-induced luciferase activity after 18 hrs by reporter gene assay relative to LGD1069; format: functional, cell-based, COS-1

Structure (SMILES) | Activity [1] | Kb [2] [nM] | Kb [3] [nM]
CCN(c1ccc(C(=O)O)cn1)c1cc(OCC(C)C)c(C(C)C)cc1Nc1ccccc1 | Active |  | 
CCCCCCOc1cc2c(cc1N(C)c1ncc(C(=O)O)cn1)C(C)(C)CCC2(C)C | Active | 77.6 | 
CCN(c1ccc(C(=O)O)cn1)c1cc(OCC(C)C)c(C(C)C)cc1/C=C/c1ccccc1 | Active | 5.89 | 5.5
CCN(c1ccc(C(=O)O)cn1)c1cc(OCC(C)C)c(C(C)C)cc1-c1ccccc1 | inactive |  | 
